Assay results published in patent US7351399B2, “Prodrugs for phosphorus-containing compounds” (Metabasis Therapeutics, Inc., priority 1998, dated 2008).
Entries after “also recorded” stand apart in the source; their conditions may differ. Values belong to the molecule of their own block, whether it stands above or below them.

Legend:
[1] = tested on: glucose production (gluconeogenesis) in isolated rat hepatocytes; assay: Inhibition of glucose production in rat hepatocytes (Example J); format: cell-based; details: lactate 10 mM / pyruvate 1 mM, 1 hour
Protocol: Select prodrugs of FBPase inhibitors were tested for inhibition of glucose production in isolated rat hepatocytes.
After a 10 minute equilibration period, lactate and pyruvate were added to 10 mM and 1 mM concentrations, respectively. Addition of gluconeogenic substrates was immediately followed by that of appropriate concentrations of test compound. After 1 hour, an aliquot (0.25 ml) was removed, transferred to an Eppendorf tube and centrifuged. The supernatant (50 μl) was then assayed for glucose content using a Glucose Oxidase kit (Sigma Chemical Co.) as per the manufacturer's instructions.
Results: The following table depicts the inhibitory effect on gluconeogenesis for several prodrugs prepared in the Examples.

[2] = Oral bioavailability by urinary excretion method (Example M); format: in vivo; details: oral gavage 20 or 40 mg/kg parent equivalents; 24 h urine vs i.v. parent ~10 mg/kg; rat
Protocol: The oral bioavailability of prodrugs of a variety of phosphonic acid FBPase inhibitors was estimated by a urinary excretion method in rat.
Prodrugs of FBPase inhibitors were dissolved in 10% ethanol/90% polyethylene glycol (mw 400) and administered by oral gavage at doses of 20 or 40 mg/kg parent compound equivalents to 6-hour fasted, Sprague Dawley rats (220-240 g). The rats were subsequently placed in metabolic cages and urine was collected for 24 hours. The quantity of parent compound excreted into urine was determined by HPLC analysis. An ODS column eluted with a gradient from potassium phosphate buffer, pH 5.5 to acetonitrile was employed for these measurements. Detection was at 310-325 nm. […] Parent compounds were typically dissolved in dimethyl sulfoxide, and administered via the tail vein in animals that were briefly anesthetized with halothane.
Results for the FBPase inhibitor prodrugs were as follows

[3] = tested on: human liver microsomes, p450 isozymes (CYP3A4, CYP1A2, CYP2C9); assay: Identification of the p450 isozyme involved in the activation, with isozyme inhibitors (Example F); details: 0-100 μM p450 isozyme inhibitor, 250 μM 30.1
[4] = Stability in plasma (Example C); details: 37° C.; 5-8 hours; HPLC
Protocol: Methods: Compounds were incubated in plasma at 37° C., and aliqouts removed at appropriate time points over the course of 5-8 hours. The aliquots were extracted with 1.5 volumes of methanol and clarified by centrifugation. Supernatants were then evaporated to dryness and the residues reconstituted with 100 μL of isoionic saline and then analyzed by reverse phase HPLC.

[5] = Chemical stability in isotonic saline and phosphate buffer (Example A); format: physicochemical; details: 100 μM; phosphate buffer pH 7.4; 1 hour; room temperature
Protocol: Methods: Aliquots of a 10 μg/mL solution of 30.1 in isotonic saline and in 100 mM potassium phosphate buffers at pH 3, 7, and 9 were sampled after 1, 2, 5, and 7 days of incubation at room temperature and analyzed by HPLC. A Beckman Ultrasphere C8 column (4.6×150 mm) was employed and eluted with a gradient from 0.1% v/v trifluoroacetic acid to 80% methanol at a flow rate of 1.0 mL/min. Detection was at 254 nm. Using these conditions, the four isomers of 30.1 were readily separated and quantified. 1.3 was incubated at 100 μM in phosphate buffer at pH 7.4 and analyzed by HPLC as described in Example I following 1 hour of incubation at room temperature.
Thus, prodrugs of the invention are stable under a broad pH range.

[6] = Delivery of parent compound to liver after intraperitoneal 1.3 (Example U); format: in vivo, rat; details: 1.3 50 mg/kg i.p.
Protocol: Methods: 1.3 was dissolved in DMSO and administered intraperitoneally to fasted rats at a dose of 50 mg/kg. At various time points following drug administration, animals were anesthetized with halothane. The peritoneal cavity was then opened and a blood sample was obtained from the abdominal vena cava and the liver freeze-clamped and excised. Blood and liver samples were processed as described in Example P and analyzed for 6-Amino-9-neopentyl-8-(2-phosphonofuranyl)purine content as described in Example I.
Results: 6-Amino-9-neopentyl-8-(2-phosphonofuranyl)purine was detected both in plasma and liver following 1.3 administration. Peak levels measured at the earliest time point of 1 hour were 5.8 μM in plasma and 5 nmoles/g tissue in liver. 6-Amino-9-neopentyl-8-(2-phosphonofuranyl)purine persisted in plasma and liver for 4 hours (the last time point measured).

[7] = tested on: isolated rat hepatocytes; assay: Activation in isolated rat hepatocytes (Example I); details: 100 μM prodrug; fed rat hepatocytes
Protocol: Methods: Hepatocytes were prepared from fed Sprague-Dawley rats (250-300 g) according to the procedure of Berry and Friend (Berry, M. N., Friend, D. S. J. Cell Biol. 43, 506-520 (1969)) as modified by Groen (Groen, A. K. et al. Eur J. Biochem 122, 87-93 (1982)). Hepatocytes (75 mg wet weight/ml) were incubated in 1 ml Krebs-bicarbonate buffer containing 10 mM glucose, and 1 mg/ml BSA. […] Prodrugs were dissolved in DMSO to yield 10 mM stock solutions, and then diluted into the cell suspension to yield a final concentration of 100 μM. At appropriate time points over the course of one hour, aliquots of the cell suspension were removed and spun through a silicon/mineral oil layer into 10% perchloric acid. The cell extracts in the acid layers were neutralized, and the intracellular prodrug metabolite content analyzed by reverse phase HPLC. An ODS column was used for analysis. It was eluted with a gradient from 10 mM sodium phosphate, pH 5.5 to 75% acetonitrile. Detection was at 310 nm. Peaks on the chromatograms were identified by comparison to the retention times and spectra of standards of prodrug and parent compound.

[8] = tested on: isolated rat hepatocytes; assay: Generation of PMEApp in isolated rat hepatocytes (Example V); format: cell-based; details: Dose 250 μM; 4 h; triplicate
Protocol: Methods: Hepatocytes were prepared from fed rats and incubated as described in Example I. Test compounds were prepared in DMSO and-diluted to 250 μM in the cell suspensions. Reactions were performed in triplicate. After 4 hours of incubation, aliquots of the suspension were removed and processed as described in Example I. Quantitation of PMEApp was performed by anion exchange HPLC also as described in Example I.

[9] = Hepatic PMEA-diphosphate and plasma PMEA after intravenous administration (Example P); format: in vivo, rat; details: 10 mg/kg PMEA equivalents i.v.; fasted rats
Protocol: Methods. […] At appropriate time points, blood and liver samples were obtained and processed as described in Example O. PMEA-diphosphate in liver and PMEA in plasma were analyzed by HPLC as described for araATP and ara-hypoxanthine, respectively, in Example O.

[10] = Renal excretion of PMEA after intravenous administration (Example Q); details: i.v.; for Renal excretion of PMEA, of the administered dose: rats, 24 hour urine
Protocol: Rats were subsequently caged in metabolic cages and urine collected over a 24 hour period. Urine samples were extracted with 70% methanol/2% acetic acid, vortexed and clarified by centrifugation. Supernatants were analyzed for PMEA content by reverse phase HPLC. A Beckman Ultrasphere ODS (4.6×150 mm) column was used with a gradient from 20 mM potassium phosphate pH 6.2 to 50% acetonitrile.

[11] = in vivo; cited from earlier work

Structure (SMILES): CC(=O)N[C@@H]1COP(=O)(c2ccc(-c3nc4ccc(Cl)cc4n3CC(C)C)o2)O[C@H]1c1ccc([N+](=O)[O-])cc1 (stereo partly drawn) [Compound 2.4, 6-Chloro-1-isobutyl-2-{5-[1S-(4-nitrophenyl)-2R-acetylamino-propan-1,3-yl]phosphono-2-furanyl}benzimidazole]
% inhibition @ 100 μM [1]: 40%
% OBAV Prodrug [2]: 8.7%

Structure (SMILES): Cc1nc2c([nH]1)c(=O)n(C)c(=O)n2Cc1ccco1 [furafylline]
inhibition of the formation of ara-AMP from 30.1 [3]: no significant inhibition

Structure (SMILES): Cc1c(Cl)cc2c(nc(-c3ccc(P4(=O)OC5CC(O)CC(C5)O4)o3)n2CC2CC2)c1C (centres unmarked) [Compound 1.4, 6-Chloro-4,5-dimethyl-1-cyclopropylmethyl-2-[1′-hydroxy-3′,5′-cyclohexylphosphono-5-furanyl]benzimidazole]
% inhibition @ 100 μM [1]: 36%

metabolism / degradation in fresh rat plasma [4]: no evidence of metabolism
stability in phosphate buffer [5]: fully stable
peak level of parent 6-Amino-9-neopentyl-8-(2-phosphonofuranyl)purine in liver ([6]; fasted rats, 1 hour): 5 nmoles/g tissue
peak level of parent 6-Amino-9-neopentyl-8-(2-phosphonofuranyl)purine in plasma ([6]; fasted rats, 1 hour): 5.8 µM
persistence of parent compound in plasma and liver ([6]; last time point measured): 4 h
Structure (SMILES): CC(C)(C)Cn1c(-c2ccc(P3(=O)OC4CC(O)CC(C4)O3)o2)nc2c(N)ncnc21 (single isomer, unassigned) [Compound 1.3, 6-Amino-8-(5′-hydroxyl-1′,3′ cyclohexyl)phosphonofuranyl-9-neopentyl purine]

Structure (SMILES): CC(C)Cn1c(-c2ccc(P3(=O)OCCC(c4ccc(F)cc4)O3)o2)nc2ccc(Cl)cc21 (centres unmarked) [Compound 5.2, 6-Chloro-1-isobutyl-2-{5-[1′-(4-fluorophenyl)-propan-1′,3′-yl]phosphono-2-furanyl}benzimidazole]
% OBAV Prodrug [2]: 2.4%

Structure (SMILES): Nc1ccc(S(=O)(=O)Nc2ccnn2-c2ccccc2)cc1 [sulfaphenazole]
inhibition of the formation of ara-AMP from 30.1 [3]: no significant inhibition

Structure (SMILES): CC(C)Cn1c(-c2ccc(P3(=O)OCCC(c4ccncc4)O3)o2)nc2ccc(Cl)cc21 (centres unmarked) [Compound 4.3, 6-Chloro-1-isobutyl-2-{5-[1′-(4-pyridyl)-propan-1′,3′-yl]phosphono-2-furanyl}benzimidazole]
% inhibition @ 100 μM [1]: 55%
% OBAV Prodrug [2]: 11.6%

Structure (SMILES): CC(=O)OCC1COP(=O)(c2ccc(-c3nc4ccc(Cl)cc4n3CC(C)C)o2)OC1 (centres unmarked) [Compound 7.2, 6-Chloro-1-isobutyl-2-{5-[2′-(acetoxymethyl)-propan-1′,3′-yl]phosphono-2-furanyl}benzimidazole]
peak intrahepatocyte levels of parent compound [7]: ~500 nmoles/g cells
IC50 [1]: 90 µM
% OBAV Prodrug [2]: 12.5%

metabolism / degradation in fresh rat plasma [4]: not degraded
Structure (SMILES): CC(C)(C)Cn1c(-c2ccc(P3(=O)OC4CC(O)CC(C4)O3)o2)nc2c(N)ncnc21 (centres unmarked) [Compound 1.2, 6-Amino-8-(5′-hydroxyl-1′,3′-cyclohexyl)phosphonofuranyl-9-neopentyl purine]

Structure (SMILES): CC(=O)N1CCN(c2ccc(OCC3COC(Cn4ccnc4)(c4ccc(Cl)cc4Cl)O3)cc2)CC1 (centres unmarked) [Ketoconazole]
inhibition of the formation of ara-AMP from 30.1 [3]: dose-dependent

Structure (SMILES): Nc1ncnc2c1nc(-c1ccc(P3(=O)OC4CC(O)CC(C4)O3)o1)n2CCc1ccccc1 (centres unmarked) [Compound 1.1, 6-Amino-8-(5′-hydroxyl-1′,3′-cyclohexyl)phosphonofuranyl-9-phenethyl purine]
metabolism / degradation in fresh rat plasma [4]: not degraded; also recorded: no evidence of metabolism

Structure (SMILES): CC(C)(C)C(=O)OCOP(=O)(COCCn1cnc2c(N)ncnc21)OCOC(=O)C(C)(C)C [bisPOM-PMEA, reference compound]
PMEApp [8]: 200 ± 33 nmol/g
PMEA-diphosphate levels in liver [9]: readily detectable levels
Renal excretion of PMEA, of the administered dose [10]: 54%
Renal excretion of PMEA, of the administered dose ([10]; listed as bis POM prodrug of PMEA): high levels of PMEA in the urine

Structure (SMILES): COC(=O)OCC1COP(=O)(c2ccc(-c3nc4ccc(Cl)cc4n3CC(C)C)o2)OC1 (centres unmarked) [Compound 7.3, 6-Chloro-1-isobutyl-2-{5-[2′-(methoxycarbonytoxymethyl)-propan-1′,3′-yl]phosphono-2-furanyl}benzimidazole]
% inhibition @ 100 μM [1]: 61%
% OBAV Prodrug [2]: 14.1%

Structure (SMILES): Nc1ncnc2c1ncn2[C@@H]1O[C@H](CO)[C@@H](O)[C@@H]1O [araA, 9-b-D-arabinofuranosyladenine]
oral bioavailability [11]: low oral bioavailability

Structure (SMILES): CC(C)Cn1c(-c2ccc(P3(=O)OCCC(c4ccccn4)O3)o2)nc2ccc(Cl)cc21 (centres unmarked) [Compound 4.2, 6-Chloro-1-isobutyl-2-{5-[1′-(2-pyridyl)-propan-1′,3′-yl]phosphono-2-furanyl}benzimidazole]
% inhibition @ 100 μM [1]: 68%
% OBAV Prodrug [2]: 8.5%

PMEA in the blood or urine [10]: no detectable PMEA
Structure (SMILES): Nc1ncnc2c1ncn2CCOCP1(=O)OCCC(c2ccncc2)O1 (centres unmarked) [Compound 28.4, 9-[2-(1-(4-Pyridyl)-1,3-propylphosphonomethoxy)ethyl]adenine]
PMEA-diphosphate levels in liver [9]: readily detectable levels; also recorded: high PMEA disphosphate levels

Structure (SMILES): COc1ccc(C2CCOP(=O)(c3ccc(-c4nc5ccc(Cl)cc5n4CC(C)C)o3)O2)cc1Br (centres unmarked) [Compound 6.1, 6-Chloro-1-isobutyl-2-{5-[1′-(3-bromo-4-methoxyphenyl)-propan-1′,3′-yl]phosphono-2-furanyl}benzimidazole]
% inhibition @ 100 μM [1]: 11%

Structure (SMILES): CCc1cc(F)c(N)c2nc(-c3ccc(P4(=O)OCC(COC(C)=O)CO4)o3)n(CC(C)C)c12 (centres unmarked) [Compound 7.4, 4-Amino-5-fluoro-7-ethyl-1-isobutyl-2-{5-[2′-(acetoxymethyl)-propan-1′,3′-yl]phosphono-2-furanyl}benzimidazole]
IC50 [1]: 25 µM
